The values that follow come from US12152038B2, “Vasopressin receptor antagonists and products and methods related thereto” (Neumora Therapeutics, Inc., priority 2017, dated 2024).

The experiment addresses T1, human Arginine Vasopressin Receptor 1b (AVPR1b) (Homo sapiens, UniProt P47901).
T1 construct: expressed in transfected cells; host or cells: CHO (CHO-AVPR1b, kept under G418 selection)
T1 sequence (P47901 1-424): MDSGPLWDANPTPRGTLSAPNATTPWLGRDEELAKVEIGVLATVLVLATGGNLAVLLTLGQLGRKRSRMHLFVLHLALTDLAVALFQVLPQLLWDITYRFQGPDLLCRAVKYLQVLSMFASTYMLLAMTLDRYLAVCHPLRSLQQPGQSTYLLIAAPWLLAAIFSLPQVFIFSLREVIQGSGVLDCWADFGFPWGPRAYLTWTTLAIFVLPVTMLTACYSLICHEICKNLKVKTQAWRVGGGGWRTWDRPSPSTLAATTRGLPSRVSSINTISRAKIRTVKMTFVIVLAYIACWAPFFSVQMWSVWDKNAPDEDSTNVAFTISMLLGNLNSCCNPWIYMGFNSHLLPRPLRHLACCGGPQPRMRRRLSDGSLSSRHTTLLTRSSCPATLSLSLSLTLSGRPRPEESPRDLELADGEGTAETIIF
In words: Vasopressin V1b receptor antagonist assay (FLIPR calcium, CHO-AVPR1b cells). Format: cell-based. On the procedure: The purpose of the assay was to determine the inhibitory effect of synthesized compounds on the Vasopressin V1b receptor. The assay was performed in Chinese Hamster Ovary (CHO) cells expressing the human Arginine Vasopressin Receptor 1b (AVPR1b). Arginine Vasopressin (AVP) evokes an increase in intracellular calcium in CHO-AVPR1b cells which is measured in a fluorescence assay on the FLIPR^TETRA using calcium sensitive dyes. Test compounds were assessed for their ability to affect the magnitude of the response to AVP, with antagonists showing a concentration-dependent reduction in the AVP-mediated fluorescence.
CHO-AVPR1b cells were maintained in routine culture in T175 Flasks at 37° C., 5% CO2. The growth medium consisted of Ham's F12 media supplemented with 10% v/v fetal bovine serum, 1× non-essential amino acids, and 0.4 mg/ml Geneticin G418.
Cells were harvested from T175 flasks when they were 80-90% confluent by first washing the cell monolayer with PBS and then dissociated using trypsin 0.05%/EDTA (3 mL for a T175 Flask). The flasks were incubated at room temperature until the cells detached. To the cell suspension, 10 ml of growth media was added and the cell density determined using the Vi-Cell automated cell counter. The cells were spun at 1000 rpm for 3 minutes, then the supernatant was carefully removed and discarded. The cell pellet was re-suspended at 6.0e^5 cells/ml in growth media. 25 μL of cells in growth media was dispensed into each well (15,000 cells per well) of a poly-D-lysine coated black, clear bottomed, 384-well plate. The plates were incubated at 37° C., 5% CO2 overnight.
At the start of each assay day, the potency of AVP was assessed and an EC80 concentration determined for subsequent compound profiling. Assays were performed using a two-step addition protocol on the FLIPR^TETRA; first addition of 5 μl of control or test compound at 10× final in assay buffer with 15 min incubation at 37° C., 5% CO2 followed by 10 μl of AVP at 6× final concentration in assay buffer. Changes in fluorescence were monitored for 3 min after both additions on the FLIPR^TETRA using 470-495 nm excitation and 515-575 nm emission wavelengths. The assay buffer consisted of HBSS (+Ca/+Mg) supplemented with 20 mM HEPES, and for the preparation of the AVP agonist only, 0.1% w/v bovine serum albumin. The assay was initiated by the removal of growth media from the cells and replacement with 45 μl of Calcium-6 dye (Molecular Devices) prepared at 1× in assay buffer. Cells were loaded with dye for 60-90 min at 37° C., 5% CO2 before initiation of the FLIPR^TETRA protocol. […] For compound profiling, test compounds were first serially diluted in DMSO (10-point curve, 1:3 dilutions) then diluted 33.3-fold in assay buffer prior to addition to the dye loaded cells on the FLIPR^TETRA. At the end of the incubation period 10 μl of AVP in assay buffer containing 0.1% BSA was added at the previously determined EC80 concentration.
In-plate controls for the assay included a Nelivaptan concentration-response curve as the reference V1b antagonist and an AVP concentration-response curve to confirm the reproducibility of the EC80 used for the compound challenge.

For orientation: IC50 means the midpoint of a concentration-inhibition curve. As for `Cc1nc(N2CC3(CN(C(=O)N4c5ccc(Cl)cc5OCC4C)C3)C2)ncc1F` (centres unmarked) [20-7], the IC50 was at least 1000 nM.

With `O=C(N1CC2(C1)CN(c1ccccn1)C2)N1CCOc2cc(Cl)ccc21` [8-2], the IC50 is at least 1000 nM.

Regarding `O=C(N1CC2(C1)CN(c1cnccn1)C2)N1CCOCc2cc(Cl)ccc21` [8-13], the IC50 is at least 1000 nM.

With `O=C(N1CC2(C1)CN(c1ncccn1)C2)N1CCOc2cc(Cl)ccc21` [1-4], the half-maximal inhibitory concentration (IC50) was at least 1000 nM.

Turning to `COc1ccnc(N2CC3(CN(C(=O)N4CCOc5cc(Cl)ccc54)C3)C2)c1` [1-15], the IC50 is at least 1000 nM.

As for `COc1ccnc(N2CC3(CN(C(=O)N4c5ccc(Cl)cc5OCC4C)C3)C2)n1` (single isomer, unassigned) [20-9-B], the IC50 is at least 1000 nM.

Consider `COc1ccc2c(c1)OCCN2C(=O)N1CC2(C1)CN(c1ccc(F)cn1)C2` [9-2], for which the IC50 was at least 1000 nM.

For `O=C(N1CC2(C1)CN(c1ncc(F)cn1)C2)N1CCOc2cc(Cl)ccc21` [4-2], the IC50 was at least 1000 nM.

Regarding `Cc1cnc(N2CC3(CN(C(=O)N4c5ccc(Cl)cc5OCC4C)C3)C2)cn1` (single isomer, unassigned) [20-5-B], the 50% inhibitory concentration (IC50) was at least 1000 nM.

On to `O=C(N1CC2(C1)CN(c1ccc(F)cn1)C2)N1CCC(O)c2cc(Cl)ccc21` (centres unmarked) [13-1, (6-chloro-4-hydroxy-3,4-dihydroquinolin-1(2H)-yl)(6-(5-fluoropyridin-2-yl)-2,6-diazaspiro[3.3]heptan-2-yl)methanone], for which the IC50 was at least 1000 nM.

As for `O=C(N1CC2(C1)CN(c1ccccn1)C2)N1CCOCc2cc(Cl)ccc21` [8-12], the IC50 was at least 1000 nM.

Turning to `CC1COc2cc(F)c(F)cc2N1C(=O)N1CC2(C1)CN(c1ncccn1)C2` (single isomer, unassigned) [19-1-B], the IC50 is at least 1000 nM.

For `COc1ccnc(N2CC3(CN(C(=O)N4c5ccc(Cl)cc5OCC4C)C3)C2)n1` (centres unmarked) [20-9], the IC50 was at least 1000 nM.

Turning to `CC1COc2cc(F)c(F)cc2N1C(=O)N1CC2(C1)CN(c1ccc(F)cn1)C2` (centres unmarked) [19-5], the IC50 is at least 1000 nM.

`O=C(N1CC2(C1)CN(c1ccc(F)cn1)C2)N1CCc2cc(Cl)ccc21` [8-11]: the IC50 was at least 1000 nM.

For the compound `CCC1COc2cc(Cl)ccc2N1C(=O)N1CC2(C1)CN(c1ccccn1)C2` (centres unmarked) [11-1, (7-chloro-3-ethyl-2,3-dihydro-4H-benzo[b][1,4]oxazin-4-yl)(6-(pyridin-2-yl)-2,6-diazaspiro[3.3]heptan-2-yl)methanone], the IC50 was at least 1000 nM.

Regarding `CC1COc2cc(Cl)ccc2N1C(=O)N1CC2(C1)CN(c1ncccn1)C2` (single isomer, unassigned) [1-83-B, (7-chloro-3-methyl-2,3-dihydro-4H-benzo[b][1,4]oxazin-4-yl)(6-(pyrimidin-2-yl)-2,6-diazaspiro[3.3]heptan-2-yl)methanone], the half-maximal inhibitory concentration (IC50) was at least 1000 nM.

Consider `O=C(N1CC2(C1)CN(c1cccc(F)n1)C2)N1CCc2cc(Cl)ccc21` [1-78], for which the IC50 is at least 1000 nM.

For the compound `CC1COc2cc(F)ccc2N1C(=O)N1CC2(C1)CN(c1noc3ccccc13)C2` (single isomer, unassigned) [4-3-B], the IC50 was at least 1000 nM.

For `Cc1ccnc(N2CC3(CN(C(=O)N4CCOc5cc(Cl)ccc54)C3)C2)c1` [1-14], the IC50 was at least 1000 nM.

`Cc1nc(N2CC3(CN(C(=O)N4c5ccc(Cl)cc5OCC4C)C3)C2)ncc1F` (single isomer, unassigned) [20-7-B]: the half-inhibitory concentration (IC50) is at least 1000 nM.

In the case of `O=C(N1CC2(C1)CN(c1noc3ccccc13)C2)N1CCOc2cc(Cl)ccc21` [4-1, (6-(benzo[d]isoxazol-3-yl)-2,6-diazaspiro[3.3]heptan-2-yl)(7-chloro-2,3-dihydro-4H-benzo[b][1,4]oxazin-4-yl)methanone], the IC50 is at least 1000 nM.

Turning to `O=C(N1CC2(C1)CN(c1ccc(F)cn1)C2)N1CCC(O)c2cc(Cl)ccc21` (single isomer, unassigned) [13-1-A], the 50% inhibitory concentration (IC50) was at least 1000 nM.

As to `CC1COc2cc(Cl)ccc2N1C(=O)N1CC2(C1)CN(c1cccnc1)C2` (single isomer, unassigned) [20-1-B], the IC50 was at least 1000 nM.

Turning to `CC1COc2cc(Cl)c(F)cc2N1C(=O)N1CC2(C1)CN(c1ncccn1)C2` (single isomer, unassigned) [19-2-B], the 50% inhibitory concentration (IC50) was at least 1000 nM.

Take `CC1COc2cc(Cl)c(F)cc2N1C(=O)N1CC2(C1)CN(c1cccnc1)C2` (centres unmarked) [19-6]: the IC50 was at least 1000 nM.

In the case of `O=C(N1CC2(C1)CN(c1cnccn1)C2)N1CCc2cc(Cl)ccc21` [8-14], the IC50 was at least 1000 nM.

For `O=C(N1CC2(C1)CN(c1ncccc1F)C2)N1CCc2cc(Cl)ccc21` [1-76], the IC50 is at least 1000 nM.

On to `COc1ccnc(N2CC3(CN(C(=O)N4c5ccc(Cl)cc5OCC4C)C3)C2)c1` (centres unmarked) [20-8], for which the IC50 was at least 1000 nM.

Turning to `CC1COc2cc(Cl)ccc2N1C(=O)N1CC2(C1)CN(c1cccnn1)C2` (single isomer, unassigned) [9-1-B], the IC50 is at least 1000 nM.

With `CC1COc2cc(F)c(F)cc2N1C(=O)N1CC2(C1)CN(c1cccnn1)C2` (single isomer, unassigned) [19-3-B], the IC50 was at least 1000 nM.

On to `CC1COc2cc(Cl)ccc2N1C(=O)N1CC2(C1)CN(c1cccnn1)C2` (centres unmarked) [9-1, (7-chloro-3-methyl-2,3-dihydro-4H-benzo[b][1,4]oxazin-4-yl)(6-(pyridazin-3-yl)-2,6-diazaspiro[3.3]heptan-2-yl)methanone], for which the IC50 is at least 1000 nM.

Regarding `O=C(N1CC2(C1)CN(c1ccc(F)cn1)C2)N1CCC(F)(F)c2cc(Cl)ccc21` [17-1, (6-chloro-4,4-difluoro-3,4-dihydroquinolin-1(2H)-yl)(6-(5-fluoropyridin-2-yl)-2,6-diazaspiro[3.3]heptan-2-yl)methanone], the IC50 was at least 1000 nM.

As for `CC1COc2cc(F)ccc2N1C(=O)N1CC2(C1)CN(c1ncc(F)cn1)C2` (single isomer, unassigned) [18-4-B], the half-inhibitory concentration (IC50) is at least 1000 nM.

With `CC1CN(C(=O)N2CC3(C2)CN(c2ccc(F)cn2)C3)c2ccc(Cl)cc2O1` (centres unmarked) [9-3], the half-inhibitory concentration (IC50) was at least 1000 nM.
